Patent publication US20170145002A1, “DEUTERATED ISOXAZOLE DERIVATIVES AND THEIR USE AS METABOTROPIC GLUTAMATE RECEPTOR POTENTIATORS” (AstraZeneca AB, priority 2015, published 2017)

Tests used:
[1] = Metabolic stability and intrinsic clearance in rat hepatocytes; format: in vitro ADME; settings: cryopreserved rat hepatocytes 1.0×10^6 viable cells/mL, 37° C., up to 120 minutes; read-out: Rat Hepatocytes Median t1/2
Protocol: Stock solutions (10 mM) of Compounds A, B, C, D and of control compounds were prepared in the appropriate solvent (DMSO). The L-15 Medium was placed in a 37° C. water bath, and allowed to warm for at least 15 minutes prior to use. Acetonitrile (80 μL) was added to each well of the 96-well plate (quenching plate).
In a new 96-well plate, the solutions of the above compounds and of the control compounds were diluted to 100 μM by combining 198 μL of acetonitrile and 2 μL of each stock solutions. A vial of cryopreserved rat hepatocytes was removed from storage, while ensuring that the vial remain at cryogenic temperatures until thawing process ensued. As quickly as possible, the cells were thawed by placing the vial in a 37° C. water bath and gently shaking the vial. The vial remained in the water bath until all ice crystals had dissolved and were no longer visible. After thawing was completed, the vial was sprayed with 70% ethanol, and transferred into a biosafety cabinet. The vial was opened and the content poured into a 50 mL conical tube containing L-15 Medium. The vial was washed twice. The 50 mL conical tube was placed in a centrifuge and spun at 50 g for 3 minutes (room temperature). The L-15 medium was aspirated. A small volume of buffer (˜200 μL) was added and the pellet was re-suspended. The tube was filled with buffer to a volume of 50 mL and centrifugation was repeated. Upon completion of spin, the L-15 Medium was aspirated and the hepatocytes re-suspended in enough incubation medium to yield ˜1.5×10^6 cells/mL. Using Cellometer® Vision, the cells were counted and the viable cell density was determined. Cells with poor viability (<80% viability) were not acceptable for use. Cells were diluted with incubation medium to a working cell density of 1.0×10^6 viable cells/mL. Hepatocytes (247.5 μL) were transferred into each well of a 96-well cell culture plate. The plate was placed on an Eppendorf Thermomixer Comfort plate shaker to allow the hepatocytes to warm for 10 minutes.
Solutions (2.5 μL of 100 μM) of Compounds A, B, C, D and of the control compounds were added into an incubation well containing cells and mixed to achieve a homogenous suspension at 0.5 minutes, which when achieved, defined the 0.5 minute time point. At the 0.5 minute time point, the incubated mixture (20 μL) was transferred to wells in a “Quenching plate,” followed by vortexing. […]
All calculations were carried out using Microsoft Excel. Peak areas were determined from extracted ion chromatograms. The in vitro half-life (t1/2) of the parent compound was determined by regression analysis of the Ln percent parent disappearance vs. time curve.
The in vitro intrinsic clearance (in vitro Clint, in μL/min/10^6 cells) was determined from the slope value using the following equation: […]

[2] = Metabolic stability and intrinsic clearance in dog hepatocytes; format: in vitro ADME; settings: cryopreserved dog hepatocytes 1.0×10^6 viable cells/mL, 37° C., up to 120 minutes; read-out: Dog Hepatocytes Median t1/2
Protocol: Stock solutions (10 mM) of the test compounds and control compounds were prepared in appropriate solvent (DMSO). The incubation medium (L-15 Medium) was placed in a 37° C. water bath, and warming was allowed for at least 15 minutes prior to use. 80 μL of acetonitrile was added to each well of the 96-well deep well plate (quenching plate). In a new 96-well plate, the 10 mM test compound solutions and the control compound solution were diluted to 100 μM by combining 198 μL of acetonitrile and 2 μL of 10 mM stock. A vial of cryopreserved dog hepatocytes was removed from storage, while ensuring that vials remain at cryogenic temperatures until thawing process ensued. As quickly as possible, the cells were thawed by placing the vial in a 37° C. water bath and gently shaking the vials. Vials remained in water bath until all ice crystals had dissolved and were no longer visible. After thawing was complete, vial was sprayed with 70% ethanol, and transferred to a biosafety cabinet. The vial was opened and the contents poured into the 50 mL conical tube containing thawing medium. The 50 mL conical tube was placed into a centrifuge and spun at 100 g for 10 minutes. Upon completion of spin, the thawing medium was aspirated and hepatocytes resuspended in enough incubation medium to yield ˜1.5×10^6 cells/mL. Using Cellometer® Vision, cells were counted and the viable cell density was determined. Cells with poor viability (<80% viability) were not acceptable for use. Cells were diluted with incubation medium to a working cell density of 1.0×10^6 viable cells/mL. 247.5 μL of hepatocytes were transferred into each well of a 96-well cell culture plate. The plate was placed on Eppendorf Thermomixer Comfort plate shaker to allow the hepatocytes to warm for 10 minutes. 2.5 μL of 100 μM test compound solution or control compound solution were added into an incubation well containing cells, and mixed to achieve a homogenous suspension at 0.5 minutes, which when achieved, defined the 0.5 minute time point. At the 0.5 minute time point, 20 μL of incubated mixture was transferred to wells in a “Quenching” plate followed by vortexing. The plate was incubated at 37 ° C. at 900 rpm on an Eppendorf Thermomixer Comfort plate shaker. At 5, 15, 30, 45, 60, 80, 100 minutes and 120 minutes, the incubation system was mixed and samples of 20 μL of incubated mixture were serially transferred at each time point to wells in a separate “Quenching” plate followed by vortexing. The quenching plates were centrifuged for 20 minutes at 4,000 rpm. […]
All calculations were carried out using Microsoft Excel. Peak areas were determined from extracted ion chromatograms. […]
The in vitro intrinsic clearance (in vitro Clint, in μL/min/10^6 cells) is determined from the slope value using the following equation: […]

Row | Compound | half-life at 1 μM [1] [min] | half-life at 1 μM [2] [min]
1 | [2H]C1([2H])OC([2H])([2H])C([2H])([2H])N(C(=O)c2cc(-c3cc(Cl)c4c(c3)CN([C@@H](C)C3CC3)C4=O)on2)C1([2H])[2H] [Compound A, (S)-7-chloro-2-(1-cyclopropylethyl)-5-(3-(morpholine-4-carbonyl-2,2,3,3,5,5,6,6-d8)isoxazol-5-yl)isoindolin-1-one] | 100 | 40.1
2 | [2H]C1([2H])CN(C(=O)c2cc(-c3cc(Cl)c4c(c3)CN([C@@H](C)C3CC3)C4=O)on2)CC([2H])([2H])O1 [Compound B, (S)-7-chloro-2-(1-cyclopropylethyl)-5-(3-(morpholine-4-carbonyl-2,2,6,6-d4)isoxazol-5-yl)isoindolin-1-one] | 36.8 | 40.1
3 | [2H]C1([2H])COCC([2H])([2H])N1C(=O)c1cc(-c2cc(Cl)c3c(c2)CN([C@@H](C)C2CC2)C3=O)on1 [Compound C, (S)-7-chloro-2-(1-cyclopropylethyl)-5-(3-(morpholine-4-carbonyl-3,3,5,5-d4)isoxazol-5-yl)isoindolin-1-one] | 29.1 | 33.3
4 | C[C@@H](C1CC1)N1Cc2cc(-c3cc(C(=O)N4CCOCC4)no3)cc(Cl)c2C1=O [Compound D, (S)-7-chloro-2-(1-cyclopropylethyl)-5-(3-(morpholine-4-carbonyl)isoxazol-5-yl)isoindolin-1-one, reference compound] | 37.3 | 29.9
